Laboratory results taken from US20240409585A1, “MACROCYCLIC IMMUNOMODULATORS” (priority 2021, published 2024).
Read-outs that look alike come from different tables or passages of the source. Numbered stars: 1 amine (or outer) side, 2 acyl side, 3 side chain; on linkers, the order of the positions; unused ones are H or OH. Bridge positions count the residues as written; N and C are the ends. Square brackets hold non-standard residues; d marks the D form. Peptide text beside a SMILES is read from it. * marks the point of attachment. Bip(4'-COOH) = N[C@@H](Cc1ccc(-c2ccc(C(=O)O)cc2)cc1)C(=O)O; Bip(4'-NHAc) = CC(=O)Nc1ccc(-c2ccc(C[C@H](N)C(=O)O)cc2)cc1; X52 = Nc1ccc(-c2ccc(C[C@H](N[*:1])C(=O)[*:2])cc2)cn1; X38 = O=C([C@H](CCCn1cc(-c2ccccc2)nn1)N[*:1])[*:2]; Phe(3-CF3) = N[C@@H](Cc1cccc(C(F)(F)F)c1)C(=O)O; Ala(morpholin-4-yl) = N[C@@H](CN1CCOCC1)C(=O)O; Phe(4-CONH2) = NC(=O)c1ccc(C[C@H](N)C(=O)O)cc1; Phe(4-COOH) = N[C@@H](Cc1ccc(C(=O)O)cc1)C(=O)O; Phe(3,4-F2) = N[C@@H](Cc1ccc(F)c(F)c1)C(=O)O; Bip = N[C@@H](Cc1ccc(-c2ccccc2)cc1)C(=O)O; Phe(3-NH2) = Nc1cccc(C[C@H](N)C(=O)O)c1; Phe(3-Me) = Cc1cccc(C[C@H](N)C(=O)O)c1; Abu(3S-NH2) = C[C@H](N)[C@H](N)C(=O)O; Val(3-OH) = CC(C)(O)[C@H](N)C(=O)O; Aad = N[C@@H](CCCC(=O)O)C(=O)O; Cha = N[C@@H](CC1CCCCC1)C(=O)O; Carboxymethyl = O=C(O)C*; NMeA = CN[C@@H](C)C(=O)O; Nle = CCCC[C@H](N)C(=O)O; Orn = NCCC[C@H](N)C(=O)O; Dab = NCC[C@H](N)C(=O)O; X48 = CN(C)S(=O)(=O)O*

Target: T1, Alexa fluor-647 labeled human PD-L1-Ig binding to Jurkat cell line over-expressing human PD-1 (Homo sapiens, UniProt Q15116)
T1 construct: expressed in transfected cells; host or cells: Jurkat
Experiment: Jurkat-PD-1 Cell Binding High-Content Screening Assay (CBA): Method 3 (Alexa fluor-647 labeled PD-L1-Ig)
Conditions: Jurkat-PD-1 cells, Alexa fluor-647 labeled PD-L1-Ig 177 nM
Procedure, shortened: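 Jurkat cells over-expressing human PD-1 in RPMI/10% FCS were preincubated 2 h at 37 °C with compound, then exposed 1 h to Alexa fluor-647 labeled human PD-L1-Ig (177 nM final). Cells fixed in 4% paraformaldehyde with Hoechst 33342 and binding quantified by high-content imaging.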

[1] = head μM, read-out: CBA Method 3 μM

T1 sequence (Q15116 25-288): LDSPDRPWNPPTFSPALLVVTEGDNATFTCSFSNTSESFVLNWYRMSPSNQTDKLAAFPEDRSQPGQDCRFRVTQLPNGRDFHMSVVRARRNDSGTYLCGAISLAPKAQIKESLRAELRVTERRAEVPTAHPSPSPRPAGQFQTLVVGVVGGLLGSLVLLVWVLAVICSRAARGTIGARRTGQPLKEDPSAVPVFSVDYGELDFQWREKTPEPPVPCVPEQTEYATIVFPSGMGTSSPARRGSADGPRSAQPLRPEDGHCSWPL

SMILES | IC50 (nM, read-out: CBA Method 3) [nM] | IC50 [1] [nM]
CCCC[C@@H]1NC(=O)CSC[C@@H](C(=O)N[C@@H](CCN)C(N)=O)NC(=O)[C@H](CCCN)NC(=O)[C@H](C(C)C)NC(=O)[C@H](CC2CCCCC2)NC(=O)[C@H](CCN)NC(=O)[C@@H](CC(C)C)NC(=O)[C@H](C)N(C)C(=O)[C@H](CCC(N)=O)NC(=O)[C@H](Cc2ccc(-c3ccccc3)cc2)NC(=O)[C@H](Cc2ccc(-c3ccc(C(=O)O)cc3)cc2)NC(=O)[C@H](Cc2cccc(C(F)(F)F)c2)NC(=O)[C@H](CC(=O)O)NC(=O)[C@H](Cc2ccc(C(=O)O)cc2)NC1=O [Example 5166] ({CH2CO}-[Nle][Phe(4-COOH)]D[Phe(3-CF3)][Bip(4'-COOH)][Bip]Q[NMeA][dL][Dab][Cha]V[Orn]C[Dab]-NH2; thioether N-14) | 1 | 
CC(C)C[C@H]1NC(=O)[C@H](C)N(C)C(=O)[C@H](Cc2ccc(C(N)=O)cc2)NC(=O)[C@H](Cc2ccc(-c3ccccc3)cc2)NC(=O)[C@H](Cc2ccc(C(=O)O)cc2)NC(=O)[C@H](Cc2cccc(C(F)(F)F)c2)NC(=O)[C@H](CC(=O)OS(=O)(=O)N(C)C)NC(=O)[C@H](Cc2ccc(C(=O)O)cc2)NC(=O)[C@H]([C@H](C)N)NC(=O)CSC[C@@H](C(=O)N[C@@H](CCN)C(N)=O)NC(=O)[C@H](CC(N)=O)NC(=O)[C@H](C(C)C)NC(=O)[C@H](CC2CCCCC2)NC(=O)[C@H](CCN)NC1=O [Example 5113] ({CH2CO}-[Abu(3S-NH2)][Phe(4-COOH)]D(X48)[Phe(3-CF3)][Phe(4-COOH)][Bip][Phe(4-CONH2)][NMeA][dL][Dab][Cha]VNC[Dab]-NH2; thioether N-14) |  | 150
CC(=O)Nc1ccc(-c2ccc(C[C@@H]3NC(=O)[C@H](Cc4cccc(C)c4)NC(=O)[C@H](CC(=O)O)NC(=O)[C@H](Cc4ccc(C(=O)O)cc4)NC(=O)[C@H](CN4CCOCC4)NC(=O)CSC[C@@H](C(=O)N[C@@H](CCN)C(N)=O)NC(=O)[C@H](CCCC(=O)O)NC(=O)[C@H](C(C)C)NC(=O)[C@H](CC4CCCCC4)NC(=O)[C@H](CCN)NC(=O)[C@@H](CC(C)C)NC(=O)[C@H](C)N(C)C(=O)[C@H](Cc4ccc(C(=O)O)cc4)NC(=O)[C@H](Cc4ccc(-c5ccccc5)cc4)NC3=O)cc2)cc1 [Example 5255] ({CH2CO}-[Ala(morpholin-4-yl)][Phe(4-COOH)]D[Phe(3-Me)][Bip(4'-NHAc)][Bip][Phe(4-COOH)][NMeA][dL][Dab][Cha]V[Aad]C[Dab]-NH2; thioether N-14) |  | 2.2
CC(=O)Nc1ccc(-c2ccc(C[C@@H]3NC(=O)[C@H](Cc4cccc(C(F)(F)F)c4)NC(=O)[C@H](CC(=O)O)NC(=O)[C@H](Cc4ccc(C(=O)O)cc4)NC(=O)[C@H](CN4CCOCC4)NC(=O)CSC[C@@H](C(=O)N[C@@H](CCN)C(N)=O)NC(=O)[C@H](CCC(=O)O)NC(=O)[C@H](C(C)C)NC(=O)[C@H](CC4CCCCC4)NC(=O)[C@H](CCN)NC(=O)[C@@H](CC(C)C)NC(=O)[C@H](C)N(C)C(=O)[C@H](Cc4ccc(C(=O)O)cc4)NC(=O)[C@H](Cc4ccc(-c5ccccc5)cc4)NC3=O)cc2)cc1 [Example 5159] ({CH2CO}-[Ala(morpholin-4-yl)][Phe(4-COOH)]D[Phe(3-CF3)][Bip(4'-NHAc)][Bip][Phe(4-COOH)][NMeA][dL][Dab][Cha]VEC[Dab]-NH2; thioether N-14) |  | 40
Cc1cccc(C[C@@H]2NC(=O)[C@H](CC(=O)O)NC(=O)[C@H](Cc3ccc(-c4ccc(C(=O)O)cc4)cc3)NC(=O)[C@H](C)NC(=O)CSC[C@@H](C(=O)N[C@@H](CCN)C(N)=O)NC(=O)[C@H](CO)NC(=O)[C@H](C(C)(C)O)NC(=O)[C@H](CC3CCCCC3)NC(=O)[C@H](Cc3cnc[nH]3)NC(=O)[C@@H](CC(C)C)NC(=O)[C@H](C)N(C)C(=O)[C@H](Cc3ccc(C(=O)O)cc3)NC(=O)[C@H](Cc3ccc(-c4ccccc4)cc3)NC(=O)[C@H](Cc3ccc(-c4ccc(C(=O)O)cc4)cc3)NC2=O)c1 [Example 5121] ({CH2CO}-A[Bip(4'-COOH)]D[Phe(3-Me)][Bip(4'-COOH)][Bip][Phe(4-COOH)][NMeA][dL]H[Cha][Val(3-OH)]SC[Dab]-NH2; thioether N-14) |  | 70
Cc1cccc(C[C@@H]2NC(=O)[C@H](CC(=O)O)NC(=O)[C@H](Cc3ccc(-c4ccc(C(=O)O)cc4)cc3)NC(=O)[C@H](CN3CCOCC3)NC(=O)CSC[C@@H](C(=O)N[C@@H](CCN)C(N)=O)NC(=O)[C@H](CCC(=O)O)NC(=O)[C@H](C(C)C)NC(=O)[C@H](CC3CCCCC3)NC(=O)[C@H](CCN)NC(=O)[C@@H](CC(C)C)NC(=O)[C@H](C)N(C)C(=O)[C@H](Cc3ccc(C(=O)O)cc3)NC(=O)[C@H](Cc3ccc(-c4ccccc4)cc3)NC(=O)[C@H](Cc3ccc(-c4ccc(C(=O)O)cc4)cc3)NC2=O)c1 [Example 5093] ({CH2CO}-[Ala(morpholin-4-yl)][Bip(4'-COOH)]D[Phe(3-Me)][Bip(4'-COOH)][Bip][Phe(4-COOH)][NMeA][dL][Dab][Cha]VEC[Dab]-NH2; thioether N-14) |  | 160
Cc1cccc(C[C@@H]2NC(=O)[C@H](CC(=O)O)NC(=O)[C@H](Cc3ccc(C(=O)O)cc3)NC(=O)[C@H]([C@H](C)N)NC(=O)CSC[C@@H](C(=O)N[C@@H](CCN)C(N)=O)NC(=O)[C@H](CCC(N)=O)NC(=O)[C@H](C(C)C)NC(=O)[C@H](CC3CCCCC3)NC(=O)[C@H](CCN)NC(=O)[C@@H](CC(C)C)NC(=O)[C@H](C)N(C)C(=O)[C@H](Cc3ccc(C(N)=O)cc3)NC(=O)[C@H](Cc3ccc(-c4ccccc4)cc3)NC(=O)[C@H](Cc3ccc(OCC(=O)O)cc3)NC2=O)c1 [Example 5119] ({CH2CO}-[Abu(3S-NH2)][Phe(4-COOH)]D[Phe(3-Me)]Y(Carboxymethyl)[Bip][Phe(4-CONH2)][NMeA][dL][Dab][Cha]VQC[Dab]-NH2; thioether N-14) |  | 20

Further lines, results first:

IC50 (nM, read-out: CBA Method 3) [nM] | IC50 [1] [nM] | SMILES
 | 50 | Cc1cccc(C[C@@H]2NC(=O)[C@H](CC(=O)O)NC(=O)[C@H](Cc3ccc(OCC(=O)O)cc3)NC(=O)[C@H](CN3CCOCC3)NC(=O)CSC[C@@H](C(=O)N[C@@H](CCN)C(N)=O)NC(=O)[C@H](CCCN)NC(=O)[C@H](C(C)C)NC(=O)[C@H](CC3CCCCC3)NC(=O)[C@H](CCN)NC(=O)[C@@H](CC(C)C)NC(=O)[C@H](C)N(C)C(=O)[C@H](CCC(N)=O)NC(=O)[C@H](Cc3ccc(-c4ccccc4)cc3)NC(=O)[C@H](Cc3ccc(-c4ccc(N)nc4)cc3)NC2=O)c1 [Example 5104] ({CH2CO}-[Ala(morpholin-4-yl)]Y(Carboxymethyl)D[Phe(3-Me)][X52][Bip]Q[NMeA][dL][Dab][Cha]V[Orn]C[Dab]-NH2; thioether N-14)
 | 300 | Cc1cccc(C[C@@H]2NC(=O)[C@H](CC(=O)O)NC(=O)[C@H](Cc3ccc(OCC(=O)O)cc3)NC(=O)[C@H](Cc3ccc(F)c(F)c3)NC(=O)CSC[C@@H](C(=O)N[C@@H](CCN)C(N)=O)NC(=O)[C@H](CCCN)NC(=O)[C@H](C(C)C)NC(=O)[C@H](CC3CCCCC3)NC(=O)[C@H](CCN)NC(=O)[C@@H](CC(C)C)NC(=O)[C@H](C)N(C)C(=O)[C@H](CCC(N)=O)NC(=O)[C@H](Cc3ccc(-c4ccccc4)cc3)NC(=O)[C@H](Cc3ccc(C(=O)O)cc3)NC2=O)c1 [Example 5285] ({CH2CO}-[Phe(3,4-F2)]Y(Carboxymethyl)D[Phe(3-Me)][Phe(4-COOH)][Bip]Q[NMeA][dL][Dab][Cha]V[Orn]C[Dab]-NH2; thioether N-14)
6 |  | Cc1cccc(C[C@@H]2NC(=O)[C@H](CC(=O)O)NC(=O)[C@H](Cc3ccc(OCC(=O)O)cc3)NC(=O)[C@H](Cc3cnc[nH]3)NC(=O)CSC[C@@H](C(=O)N[C@@H](CCN)C(N)=O)NC(=O)[C@H](CCCN)NC(=O)[C@H](C(C)C)NC(=O)[C@H](CC3CCCCC3)NC(=O)[C@H](CCN)NC(=O)[C@@H](CC(C)C)NC(=O)[C@H](C)N(C)C(=O)[C@H](CCC(N)=O)NC(=O)[C@H](Cc3ccc(-c4ccccc4)cc3)NC(=O)[C@H](Cc3ccc(C(=O)O)cc3)NC2=O)c1 [Example 5274] ({CH2CO}-HY(Carboxymethyl)D[Phe(3-Me)][Phe(4-COOH)][Bip]Q[NMeA][dL][Dab][Cha]V[Orn]C[Dab]-NH2; thioether N-14)
 | 20 | Cc1cccc(C[C@@H]2NC(=O)[C@H](CC(=O)O)NC(=O)[C@H](Cc3ccc(OCC(=O)O)cc3)NC(=O)[C@H](CC3CCCCC3)NC(=O)CSC[C@@H](C(=O)N[C@@H](CCN)C(N)=O)NC(=O)[C@H](CCCN)NC(=O)[C@H](C(C)C)NC(=O)[C@H](Cc3cccc(N)c3)NC(=O)[C@H](CCN)NC(=O)[C@@H](CC(C)C)NC(=O)[C@H](C)N(C)C(=O)[C@H](CCC(N)=O)NC(=O)[C@H](Cc3ccc(-c4ccccc4)cc3)NC(=O)[C@H](Cc3ccc(C(=O)O)cc3)NC2=O)c1 [Example 5190] ({CH2CO}-[Cha]Y(Carboxymethyl)D[Phe(3-Me)][Phe(4-COOH)][Bip]Q[NMeA][dL][Dab][Phe(3-NH2)]V[Orn]C[Dab]-NH2; thioether N-14)
1.6 |  | CC(=O)Nc1ccc(-c2ccc(C[C@@H]3NC(=O)[C@H](Cc4cccc(C)c4)NC(=O)[C@H](CC(=O)O)NC(=O)[C@H](CCCn4cc(-c5ccccc5)nn4)NC(=O)[C@H](CN4CCOCC4)NC(=O)CSC[C@@H](C(=O)N[C@@H](CCN)C(N)=O)NC(=O)[C@H](CCC(N)=O)NC(=O)[C@H](C(C)C)NC(=O)[C@H](CC4CCCCC4)NC(=O)[C@H](CCN)NC(=O)[C@@H](CC(C)C)NC(=O)[C@H](C)N(C)C(=O)[C@H](Cc4ccc(C(=O)O)cc4)NC(=O)[C@H](Cc4ccc(-c5ccccc5)cc4)NC3=O)cc2)cc1 [Example 5295] ({CH2CO}-[Ala(morpholin-4-yl)][X38]D[Phe(3-Me)][Bip(4'-NHAc)][Bip][Phe(4-COOH)][NMeA][dL][Dab][Cha]VQC[Dab]-NH2; thioether N-14)
